Laboratory results as given in patent US6803378B2, “HIV integrase inhibitors” (Bristol-Myers Squibb Company, priority 2000, dated 2004).

Tests used:
[1] = target: T1, HIV Integrase (Human immunodeficiency virus type 1 group M subtype B, UniProt P04585); experiment: In vitro activity against integrase, Method C (electroluminescence, ECL assay); type: biochemical; conditions: read-out: Percent inhibition of HIV Integrase at 70 uM
T1 construct: 0.26 ng of recombinant integrase was then incubated with the beads
Procedure: (§1) The in vitro activities, against integrase, of compounds of the present invention were measured by one of the following three methods.
(§2) In Method B, the in vitro activity against integrase was measured by binding, for each reaction, 5 pmole of biotin labeled substrate DNA to 100 ug of Streptavidin coated PVT SPA beads (Amersham Pharmacia Biotech). 0.26 ng of recombinant integrase was then incubated with the beads for 90 min at 37° C. Unbound enzyme was removed by washing the complex followed by addition of inhibitors and 0.1 fmol of P33 labeled target DNA. Reaction was stopped by adding EDTA to a final concentration of 10 mM. Samples were counted in TopCountNXT (Packard) and the CPM was used as a measure of integration. Reaction condition was as described in A. Engelman and R. Craigie, J. Virol. 69, 5908-5911 (1995). The sequences of substrate and target DNA were described in Nucleic Acid Research 22, 1121-1122 (1994).
Method C (Electroluminesence Assay):
The ECL assay of Method C is essentially the same as the SPA assay of Method B, except that 0.5 μg of Streptavidin coated magnetic beads and 0.5 pmol Ru labeled target DNA were used for each reaction instead of SPA beads and P33 labeled DNA. The samples were read in a M8 analyzer (IGEN International, Inc).

[2] = target: T2, HIV-1 integrase (Human immunodeficiency virus type 1 group M subtype B, UniProt P04585); experiment: In vitro activity against integrase, Method A (immobilized precleaved substrate DNA, biotinylated target DNA, 96 well plate); type: biochemical; conditions: Assay Method A, read-out: Percent inhibition of HIV Integrase at 70 uM
T2 construct: Purified recombinant HIV-1 integrase was incubated with immobilized precleaved substrate DNA
Procedure: as §1
In Method A, the in vitro activity against integrase was measured in a manner which was similar to previously disclosed methods (cf. Hazuda, D. J.; Felock, P.; Witmer, M.; Wolfe, A.; Stillmock, K.; Grobler, J. A.; Espeseth, A.; Gabryelski, L.; Schleif, W.; Blau, C.; Miller, M. D. Science, 2000, 287, 646) Purified recombinant HIV-1 integrase was incubated with immobilized precleaved substrate DNA in a 96 well plate for 20 min at 37° C. After the integration complex was formed, compounds at desired concentrations were added to the wells followed by a 10 min incubation at 37° C. Biotinyted Target DNA was then added and the reaction was carried out for an additional 1 hour at 37° C. Wells were then washed thoroughly to remove any free DNA and integration activity was measured by using a commercial kit to quantitate the amount of biotinyted target DNA integrated into the substrate.

[3] = target: T1, HIV Integrase; experiment: In vitro activity against integrase, Method B (SPA assay); type: biochemical; conditions: read-out: Percent inhibition of HIV Integrase at 70 uM
Procedure: as §1, §2

SMILES	melting point	inhibition at 70 µM [1]	also measured
O=C(O)/C(O)=C/C(=O)N(Cc1ccc(Cl)cc1)Cc1ccc(Cl)c(Cl)c1	152 °C (dec.)	–	–
CN(Cc1ccc(Cl)cc1)C(=O)/C=C(\O)C(=O)O [Compound 45, 3-[(4-Chloro-benzyl)-methyl-carbamoyl]-2-hydroxy-acrylic acid]	–	99%	–
O=C(O)/C(O)=C/C(=O)N(CCCc1ccc(-c2ccccc2)cc1)Cc1ccc(F)cc1 [Compound 85, 3-[(3-Biphenyl-4-yl-propyl)-(4-fluoro-benzyl)-carbamoyl]-2-hydroxy-acrylic acid]	–	94%	–
CN(Cc1ccccc1Cl)C(=O)/C=C(\O)C(=O)O [Compound 10, 3-[(2-Chloro-benzyl)-methyl-carbamoyl]-2-hydroxy-acrylic acid]	84 to 86 °C	–	inhibition at 70 µM [2]: 79%
O=C(O)/C(O)=C/C(=O)N(Cc1ccc(F)cc1)Cc1ccc(F)cc1 [Compound 11, 3-[Bis-(4-fluoro-benzyl)-carbamoyl]-2-hydroxy-acrylic acid]	> 147 °C (dec.)	–	inhibition at 70 µM [3]: 97%
CN(Cc1ccc(F)c(Br)c1)C(=O)C=C(O)C(=O)O [Compound 48, 3-[(3-Bromo-4-fluoro-benzyl)-methyl-carbamoyl]-2-hydroxy-acrylic acid]	–	99%	–
O=C(O)/C(O)=C/C(=O)N(CCCc1ccccc1Cl)Cc1ccc(F)cc1 [Compound 87, 3-[[3-(2-Chloro-phenyl)-propyl]-(4-fluoro-benzyl)-carbamoyl]-2-hydroxy-acrylic acid]	–	99%	–
